Experimental data from US12264163B2, “Compounds and methods for treating fibrotic pathologies” (Mayo Foundation for Medical Education and Research, priority 2019, dated 2025).

Assays:
YAP/TAZ [1] = experiment: YAP/TAZ nuclear localization in IPF patient-derived lung fibroblasts treated with dopaminergic agonists; assay type: cell-based, human; conditions: 10 μM, 2 hours
Summary of the method: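 Fibroblasts from IPF patients (N=4 patient samples) were exposed to dopaminergic agonists at 10 μM for 2 h before fixation. Cells were immunostained for YAP/TAZ with DAPI counterstain and imaged at 4×. Percent nuclear YAP/TAZ localization was quantified by automated image analysis.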

D1 receptor = conditions: cited from earlier work
lung fibroblasts = experiment: Fibroblast proliferation (counting DAPI nuclei); assay type: cell-based, human
Method: IPF fibroblast and Normal lung fibroblast co-culture proliferation. Cell are prelabelled with fluorescent dyes (red and green) and then cocultured at a ratio of about 1:1 in 96 well plates. Cell counts are determined every 24 hours and plotted as a ratio of IPF/HLF cells. In the control wells the IPF cells outgrow and take over the well. N=2.
Proliferation of lung fibroblasts (IMR-90 cells) measured for 4 days in the presence of GPCR agonists ET-1 (100 nM) and LPA (10 μM)+/−10 μM DHX. Cells were fixed and counted with DAPI at the end of each day. N=3 technical triplicates.
Adult lung fibroblasts plated into 96-well plates, stimulated with 2 ng/mL TGFβ and compounds at the indicated concentration. Proliferation determined by fixing and counting DAPI nuclei using a Cytation 5. N=2.
Fibroblasts were stimulated with 2 ng/mL TGFβ and treated with compound 1 (MS-9) at the indicated concentration (0.1 μM, 1 μM, and 10 μM). Proliferation determined by fixing and counting DAPI nuclei using a Cytation.

YAP/TAZ [2] = experiment: YAP/TAZ nuclear localization in IMR-90 and other fibroblasts / mesenchymal cells (immunofluorescence); assay type: cell-based, human; conditions: for YAP/TAZ nuclear localization: fibroblasts / mesenchymal cells on plastic, 2 hours
cAMP = cAMP assay (cAMP-Glo) in fibroblasts; assay type: cell-based, human; conditions: IPF patient-derived fibroblasts, 20 minutes, 10 μM
Method: FIG. 9 contains a bar graph showing cAMP measured in IPF patient-derived fibroblasts treated for 20 minutes with DHX (10 μM)+/−SCH 39166 (3 μM). N=3 (**p<0.01 vs. 0.1% DMSO vehicle control).
N=3, IMR-90 lung fibroblasts.
cAMPAssay: IPF patient derived fibroblasts were plated in EMEM containing 10% FBS overnight. […] 20 minutes prior to cell lysis media was removed and cells were treated with “induction buffer” containing nonselective phosphodiesterase inhibitors and the indicated concentration of compound(s). Luminescence was measured on a Flexstation 3 (Molecular Devices) plate reader.

[3] = tested on: IPF patient derived fibroblasts; experiment: Traction force microscopy of IPF patient-derived fibroblasts; assay type: cell-based, human; conditions: IPF fibroblasts on 6.4 kPa matrices
Method: Traction Force Microscopy: Traction analysis was conducted as previously described. […] IPF patient derived fibroblasts were plated on the gels overnight and treated as indicated before traction force measurements. Images of gel surface-conjugated fluorescent beads were acquired for each cell before and after trypsinization using a Nikon ECLIPSE Ti microscope at ×10 magnification. Traction forces were estimated by measuring bead displacement fields and computing corresponding traction fields using TractionsForAll (freely distributed program that calculates 2-D tractions exerted by an adherent cell on its substrate).

Oc1cc2c(cc1O)[C@H]1c3ccccc3CN[C@@H]1CC2 (racemic) [Dihydrexidine]
Nuclear localization (% of total cells) (YAP/TAZ [1]; IPF-1 patient fibroblasts): 13.22 % of total cells | Nuclear localization (% of total cells) (YAP/TAZ [1]; IPF-2 patient fibroblasts): 21.79 % of total cells | Nuclear localization (% of total cells) (YAP/TAZ [1]; IPF-3 patient fibroblasts): 27.63 % of total cells | Nuclear localization (% of total cells) (YAP/TAZ [1]; IPF-4 patient fibroblasts): 21.08 % of total cells | efficacy at elevating cAMP (D1 receptor) (D1 receptor): full magnitude cAMP response | proliferation of lung fibroblasts (lung fibroblasts; 4 days, ET-1, LPA, TGFβ or CTGF +/− 10 μM DHX): blocks proliferation | IPF fibroblast and normal lung fibroblast co-culture proliferation (lung fibroblasts; co-culture about 1:1, ratio of IPF/HLF cells every 24 hours): selectively slows proliferation in IPF fibroblasts | YAP/TAZ nuclear localization stimulated by GPCR ligands (YAP/TAZ [2]; confluent fibroblasts, endothelin-1, lysophosphatidic acid, serotonin, DHX 10 μM): blocked nuclear localization of YAP/TAZ | YAP/TAZ nuclear localization (YAP/TAZ [2]): reduced nuclear localization of YAP/TAZ | YAP/TAZ nuclear localization (YAP/TAZ [2]; listed as DHX): effective at inhibiting YAP/TAZ nuclear localization | potency of inhibition of YAP/TAZ nuclear localization, normal vs IPF lung fibroblasts (YAP/TAZ [2]; normal lung fibroblasts vs those from a patient with IPF): equally potent | cAMP (cAMP): elevated cAMP | contractile forces (traction force microscopy) [3]: significantly and dose-dependently reduced the contractile forces
